Results as given in ChEMBL document CHEMBL6121016, “Design, Synthesis, and Biological Evaluation of 1,3,4-Thiadiazole Derivatives as Novel Potent Peptide Deformylase Inhibitors for Combating Drug-Resistant Gram-Positive and -Negative Bacteria” (J Med Chem, 2025).
In brackets after ≈: the same amount, converted by molar mass.

How the values were obtained:
[1] = tested on: Staphylococcus aureus; test: Antibacterial activity against methicillin-resistant Staphylococcus aureus ATCC 33591 after 16 to 18 hrs by broth microdilution method; format: functional; conditions: time 16-18 hrs
[2] = tested on: Staphylococcus aureus; test: Antibacterial activity against methicillin-resistant Staphylococcus aureus ATCC 43300 after 16 to 18 hrs by broth microdilution method; format: functional; conditions: time 16-18 hrs
[3] = tested on: Staphylococcus aureus; test: Antibacterial activity against methicillin-resistant Staphylococcus aureus Bio-090770 after 16 to 18 hrs by broth microdilution method; format: functional; conditions: time 16-18 hrs
[4] = tested on: Staphylococcus aureus; test: Antibacterial activity against methicillin-susceptible Staphylococcus aureus ATCC 29213 after 16 to 18 hrs by broth microdilution method; format: functional; conditions: time 16-18 hrs
[5] = tested on: Staphylococcus aureus; test: Antibacterial activity against methicillin-susceptible Staphylococcus aureus ATCC 25923 after 16 to 18 hrs by broth microdilution method; format: functional; conditions: time 16-18 hrs
[6] = tested on: Staphylococcus aureus; test: Antibacterial activity against methicillin-susceptible Staphylococcus aureus ATCC 13709 after 16 to 18 hrs by broth microdilution method; format: functional; conditions: time 16-18 hrs
[7] = tested on: Staphylococcus epidermidis; test: Antibacterial activity against Staphylococcus epidermidis after 16 to 18 hrs by broth microdilution method; format: functional; conditions: time 16-18 hrs
[8] = tested on: Escherichia coli; test: Antibacterial activity against Escherichia coli ATCC 25922 after 16 to 18 hrs by broth microdilution method; format: functional; conditions: time 16-18 hrs
[9] = tested on: Klebsiella pneumoniae; test: Antibacterial activity against Klebsiella pneumoniae CICC 21611 after 16 to 18 hrs by broth microdilution method; format: functional; conditions: time 16-18 hrs
[10] = tested on: Acinetobacter baumannii; test: Antibacterial activity against Acinetobacter baumannii Bio 34235 after 16 to 18 hrs by broth microdilution method; format: functional; conditions: time 16-18 hrs
[11] = tested on: Acinetobacter baumannii; test: Antibacterial activity against drug-resistant Acinetobacter baumannii Bio 53272 after 16 to 18 hrs by broth microdilution method; format: functional; conditions: time 16-18 hrs
[12] = tested on: Acinetobacter baumannii; test: Antibacterial activity against Acinetobacter baumannii Bio 53272 after 16 to 18 hrs by broth microdilution method; format: functional; conditions: time 16-18 hrs
[13] = tested on: Acinetobacter baumannii; test: Antibacterial activity against Acinetobacter baumannii Bio 24253 after 16 to 18 hrs by broth microdilution method; format: functional; conditions: time 16-18 hrs
[14] = tested on: Acinetobacter baumannii; test: Antibacterial activity against Acinetobacter baumannii Bio 53250 after 16 to 18 hrs by broth microdilution method; format: functional; conditions: time 16-18 hrs
[15] = tested on: Acinetobacter baumannii; test: Antibacterial activity against Acinetobacter baumannii Bio 69680 after 16 to 18 hrs by broth microdilution method; format: functional; conditions: time 16-18 hrs
[16] = tested on: Acinetobacter baumannii; test: Antibacterial activity against Acinetobacter baumannii Bio 120982 after 16 to 18 hrs by broth microdilution method; format: functional; conditions: time 16-18 hrs
[17] = tested on: Klebsiella pneumoniae; test: Antibacterial activity against Klebsiella pneumoniae CICC 21092 after 16 to 18 hrs by broth microdilution method; format: functional; conditions: time 16-18 hrs
[18] = tested on: Klebsiella pneumoniae; test: Antibacterial activity against Klebsiella pneumoniae CICC 20093 after 16 to 18 hrs by broth microdilution method; format: functional; conditions: time 16-18 hrs
[19] = tested on: Escherichia coli; test: Antibacterial activity against Escherichia coli ATCC 10668 after 16 to 18 hrs by broth microdilution method; format: functional; conditions: time 16-18 hrs
[20] = tested on: Escherichia coli; test: Antibacterial activity against Escherichia coli ATCC 10663 after 16 to 18 hrs by broth microdilution method; format: functional; conditions: time 16-18 hrs
[21] = tested on: Escherichia coli; test: Antibacterial activity against Escherichia coli ATCC 10661 after 16 to 18 hrs by broth microdilution method; format: functional; conditions: time 16-18 hrs
[22] = Cytotoxicity against human HEK293T cells assessed as cell viability at 3.125 to 100 uM incubated for 24 hrs by MTT assay; format: toxicity, cell-based, HEK-293T
[23] = Cytotoxicity against human HeLa cells assessed as cell viability at 3.125 to 100 uM incubated for 24 hrs by MTT assay; format: toxicity, cell-based
[24] = Aqueous solubility of compound at 0.9% aqueous NaCl solution incubated for 2 hrs by UV spectrophotometry analysis; format: physicochemical
[25] = molecular target: T1, Peptide deformylase (Staphylococcus aureus, UniProt P68826); test: Inhibition of Staphylococcus aureus PDF-Ni assessed as enzyme activity incubated for 30 min by fluorescamine method
T1 sequence (P68826 whole entry): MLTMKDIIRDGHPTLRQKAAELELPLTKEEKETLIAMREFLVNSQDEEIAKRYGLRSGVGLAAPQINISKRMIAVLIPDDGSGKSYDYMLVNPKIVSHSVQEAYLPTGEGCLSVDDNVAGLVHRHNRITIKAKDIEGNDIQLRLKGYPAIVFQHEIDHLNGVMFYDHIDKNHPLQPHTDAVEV

[26] = molecular target: T2, Peptide deformylase (Escherichia coli, UniProt Q9JN24); test: Inhibition of Escherichia coli PDF-Ni assessed as enzyme activity incubated for 30 min by fluorescamine method
T2 sequence (Q9JN24 whole entry): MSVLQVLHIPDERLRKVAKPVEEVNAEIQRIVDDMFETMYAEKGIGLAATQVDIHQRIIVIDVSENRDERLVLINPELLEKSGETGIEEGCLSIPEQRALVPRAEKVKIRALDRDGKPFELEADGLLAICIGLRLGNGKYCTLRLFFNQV

[27] = tested on: Staphylococcus aureus; test: Bactericidal activity against methicillin-resistant Staphylococcus aureus assessed as bacteriostatic efficiency at 0.5 microg/mL incubated for 24 hrs by time killing analysis relative to control; format: functional; conditions: dose 0.5 µg/ml
[28] = Methemoglobin toxicity in human blood at 500 uM incubated for 6 hrs by MetHb content assay; format: tissue-based
[29] = Acute toxicity in KM mouse infected with drug-resistant Acinetobacter baumannii assessed as survival rate at 40 mg/kg; format: organism-based; conditions: in vivo
[30] = Acute toxicity in KM mouse infected with drug-resistant Acinetobacter baumannii assessed as pathological changes in liver at 40 mg/kg by HE staining based analysis; format: organism-based; conditions: in vivo
[31] = Acute toxicity in KM mouse infected with drug-resistant Acinetobacter baumannii assessed as pathological changes in lungs at 40 mg/kg by HE staining based analysis; format: organism-based; conditions: in vivo
[32] = Acute toxicity in KM mouse infected with drug-resistant Acinetobacter baumannii assessed as pathological changes in kidney at 40 mg/kg by HE staining based analysis; format: organism-based; conditions: in vivo

| Structure (SMILES) | MIC [1] [µg/mL] | MIC [2] [µg/mL] | MIC [3] [µg/mL] | MIC [4] [µg/mL] | MIC [5] [µg/mL] | MIC [6] [µg/mL] | MIC [7] [µg/mL] | MIC [8] [µg/mL] | MIC [9] [µg/mL] | MIC [10] [µg/mL] | MIC [11] [µg/mL] | MIC [12] [µg/mL] | MIC [13] [µg/mL] | MIC [14] [µg/mL] | MIC [15] [µg/mL] | MIC [16] [µg/mL] | MIC [17] [µg/mL] | MIC [18] [µg/mL] | MIC [19] [µg/mL] | MIC [20] [µg/mL] | further results |
| --- | --- | --- | --- | --- | --- | --- | --- | --- | --- | --- | --- | --- | --- | --- | --- | --- | --- | --- | --- | --- | --- |
| CCCC[C@H](CN(O)C=O)C(=O)N1CCC[C@H]1c1nnc(-c2ccc(-c3ccccn3)cc2)s1 | 0.125 (≈ 0.261 µM) | 0.25 (≈ 0.521 µM) | 0.5 (≈ 1.04 µM) | 0.5 (≈ 1.04 µM) | 0.25 (≈ 0.521 µM) | 0.5 (≈ 1.04 µM) | 1 (≈ 2.09 µM) | 64 (≈ 133 µM) | 32 (≈ 66.7 µM) | 32 (≈ 66.7 µM) | 32 (≈ 66.7 µM) | 32 (≈ 66.7 µM) | 32 (≈ 66.7 µM) | 32 (≈ 66.7 µM) | 32 (≈ 66.7 µM) | 32 (≈ 66.7 µM) | 32 (≈ 66.7 µM) | 16 (≈ 33.4 µM) | 16 (≈ 33.4 µM) | 16 (≈ 33.4 µM) | MIC [21]: 16 µg/mL (≈ 33.4 µM); IC50 at 24 h [22]: > 100 µM; IC50 at 24 h [23]: 89 µM; solubility at 2 h [24]: 370 µg/mL (≈ 771 µM); IC50 [25]: 0.0043 µM; IC50 [26]: 0.124 µM |
| CCCC[C@H](CN(O)C=O)C(=O)N1CCC[C@H]1c1nnc(-c2ccc([N+](=O)[O-])cc2F)s1 | 0.125 (≈ 0.269 µM) | 0.125 (≈ 0.269 µM) | 0.5 (≈ 1.07 µM) | 0.5 (≈ 1.07 µM) | 0.25 (≈ 0.537 µM) | 0.5 (≈ 1.07 µM) | 0.5 (≈ 1.07 µM) | > 16 | 16 (≈ 34.4 µM) | > 16 | > 16 | 16 (≈ 34.4 µM) | 32 (≈ 68.7 µM) | 16 (≈ 34.4 µM) | 16 (≈ 34.4 µM) | 16 (≈ 34.4 µM) | 32 (≈ 68.7 µM) | 16 (≈ 34.4 µM) | 16 (≈ 34.4 µM) | 8 (≈ 17.2 µM) | MIC [21]: 8 µg/mL (≈ 17.2 µM); IC50 at 24 h [22]: > 100 µM; IC50 at 24 h [23]: 91.7 µM; solubility at 2 h [24]: 2020 µg/mL (≈ 4340 µM); Activity [27]: 100% |
| CCCC[C@H](CN(O)C=O)C(=O)N1CCC[C@H]1C(=O)Nc1ccc(F)c[n+]1[O-] | 0.125 (≈ 0.315 µM) | 0.25 (≈ 0.631 µM) | 0.5 (≈ 1.26 µM) | 0.25 (≈ 0.631 µM) | 0.5 (≈ 1.26 µM) | 0.25 (≈ 0.631 µM) | 0.25 (≈ 0.631 µM) | 32 (≈ 80.7 µM) | 64 (≈ 161 µM) | 32 (≈ 80.7 µM) | > 16 | 32 (≈ 80.7 µM) | 32 (≈ 80.7 µM) | 32 (≈ 80.7 µM) | 16 (≈ 40.4 µM) | 16 (≈ 40.4 µM) | 64 (≈ 161 µM) | 64 (≈ 161 µM) | 32 (≈ 80.7 µM) | 16 (≈ 40.4 µM) | MIC [21]: 8 µg/mL (≈ 20.2 µM); IC50 at 24 h [22]: > 100 µM; IC50 at 24 h [23]: > 100 µM; solubility at 2 h [24]: 1650 µg/mL (≈ 4160 µM); Activity [28]: Toxic |
| O=C(O)c1cn(C2CC2)c2cc(N3CCNCC3)c(F)cc2c1=O [CIPROFLOXACIN] | 0.25 (≈ 0.754 µM) | 64 (≈ 193 µM) | 0.5 (≈ 1.51 µM) | 8 (≈ 24.1 µM) | 4 (≈ 12.1 µM) | 8 (≈ 24.1 µM) | 0.06 (≈ 0.181 µM) | – | 0.03 (≈ 0.0905 µM) | 0.5 (≈ 1.51 µM) | 32 (≈ 96.6 µM) | – | – | – | – | – | – | – | – | – | Activity [29]: Toxic; Activity [30]: Toxic; Activity [31]: Toxic; Activity [32]: Toxic |
| CCCC[C@H](CN(O)C=O)C(=O)N1CCC[C@H]1c1nnc(-c2ccc(C)s2)s1 | 0.25 (≈ 0.592 µM) | 0.25 (≈ 0.592 µM) | 2 (≈ 4.73 µM) | 2 (≈ 4.73 µM) | 4 (≈ 9.47 µM) | 2 (≈ 4.73 µM) | 1 (≈ 2.37 µM) | 64 (≈ 151 µM) | 32 (≈ 75.7 µM) | 32 (≈ 75.7 µM) | 16 (≈ 37.9 µM) | – | – | – | – | – | – | – | – | – | IC50 [25]: 0.0074 µM; IC50 [26]: 0.0985 µM |
